Consider 35 molecules from ChEMBL document CHEMBL1201862, “PubChem BioAssay data set” (2004).

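Briefly, cells in 96-well plates were exposed to five compound concentrations for 48 h, and endpoints were estimated by linear interpolation. GI50 is the concentration that inhibits growth by half.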 The source made the active and inactive calls. No stated cut-off is given here; in the data, active = GI50 up to about 1.1 µM and inactive = higher. A value given as a limit tells only on which side of the number the result lay.

Among the test systems are M19-MEL; LXFL 529; SNB-78; KM-20L2; XF498; BT-549; MDA-N; Hs-578T.
Holding throughout (test): NCI tumour cell line growth inhibition, 48 h

As to `Cc1cccc(C)c1NC(=O)CCCC(=O)C(C#N)c1ccc(Cl)cc1` (stereo not drawn), the GI50 in the assay with M19-MEL, in the assay on LXFL 529, in the assay on SNB-78 and in the assay with KM-20L2 was > 100 µM (inactive) throughout.

`Cc1cc(O)nc(CNC(=O)c2cccc(C(=O)NCc3cc(O)nc(C)n3)c2)n1`: the GI50 with M19-MEL, in the assay on LXFL 529, with SNB-78 and with KM-20L2 was > 100 µM (inactive) each time.

Take `CSC(=N)N1N=C2c3ccccc3CC[C@@H]2[C@@H]1c1ccccc1`: the GI50 is 15.9 µM (inactive) in the assay on M19-MEL, 11.5 µM (inactive) in the assay with LXFL 529, 16.7 µM (inactive) in the assay on XF498 and 12 µM (inactive) in the assay with KM-20L2.

`Cc1n2nc(N)sc2n[n+]1CC(=O)c1ccccc1`: the GI50 with BT-549, with MDA-N and in the assay on Hs-578T was > 100 µM (inactive) throughout.

In the case of `N=c1oc2ccc3ccccc3c2cc1-c1nc(O)c2ccccc2n1`, the GI50 is 15.1 µM (inactive) in the assay on BT-549, 46.2 µM (inactive) in the assay with MDA-N and 20.5 µM (inactive) in the assay on Hs-578T.

For the molecule `C[C@@H](CO)OCOCc1ccccc1`, the GI50 with M19-MEL, in the assay with LXFL 529, in the assay with SNB-78 and in the assay with XF498 was > 100 µM (inactive) throughout.

For `CC(C)C(=O)C(C)(C)CCc1ccccn1`, the GI50 in the assay with BT-549, in the assay with MDA-N and in the assay with Hs-578T was > 100 µM (inactive) each time.

Turning to `CCOC(=O)c1c(C)[nH]c2c1c(CN(C)C)c(O)c1nc(C)c(C)nc12`, the GI50 in the assay on BT-549 was 26.2 µM (inactive); in the assay on MDA-N it was 19.2 µM (inactive); in the assay with Hs-578T, 22.8 µM (inactive).

Consider `Cc1c(N2CCCC2)cc2c(c1NC(=O)c1ccccc1Cl)C(C)(C)CC2(C)C`, for which the GI50 with BT-549 was 17.8 µM (inactive); with MDA-N, 13.9 µM (inactive); in the assay with Hs-578T it was 16.7 µM (inactive).

For the molecule `CCOC(=O)C1CCC/C1=N\NC(=N)N.Cc1cc(O)c(C(C)C)cc1S(=O)(=O)O` (stereo not drawn), the GI50 with BT-549, in the assay on MDA-N and in the assay with Hs-578T was > 100 µM (inactive) in each case.

With `Cc1cc(O)c(C(C)C)cc1NC(=O)Nc1cccc2ccccc12`, the GI50 in the assay with BT-549 is 17.2 µM (inactive); with MDA-N it was 12.7 µM (inactive); with Hs-578T, 13.4 µM (inactive).

In the case of `COc1cc(OC)cc(C(=O)NC2=C(Cl)C(=O)c3ccccc3C2=O)c1`, the GI50 in the assay on BT-549 was 2.27 µM (inactive); in the assay with MDA-N, 1.91 µM (inactive); with Hs-578T it was 3.3 µM (inactive).

Consider `c1ccc2nc(CCC3CCCCN3)ccc2c1` (stereo not drawn), for which the GI50 with BT-549 is 61.7 µM (inactive); in the assay on MDA-N, 87.7 µM (inactive); with Hs-578T it was > 100 µM (inactive).

As to `COc1cc2c(cc1OC)C(=O)N(c1ccc(OCCN3CCCC3)cc1)C2=O`, the GI50 in the assay on BT-549, with MDA-N and in the assay with Hs-578T was > 100 µM (inactive) in each case.

`CCCCCC(=O)N[C@H]1CCc2cc(O)c(O)c(O)c2-c2ccc(SC)c(=O)cc21`: the GI50 is 19.9 µM (inactive) with M19-MEL, 21.5 µM (inactive) in the assay on LXFL 529, 65.2 µM (inactive) in the assay with SNB-78 and 27.6 µM (inactive) in the assay with KM-20L2.

As for `CC(=O)c1ccc(Nc2nc3ccccc3c3occc23)cc1`, the GI50 with BT-549 was 19.8 µM (inactive); in the assay on MDA-N, 6.98 µM (inactive); in the assay on Hs-578T, 15.3 µM (inactive).

For `CSCC(COC(C)=O)(CSC)c1ccncc1`, the GI50 in the assay on M19-MEL, in the assay on LXFL 529, in the assay with SNB-78 and in the assay with KM-20L2 was > 100 µM (inactive) in each case.

With `CC(=O)Nc1ccc2c3c(cc(O)c2c1)N(C(=O)CCCCCCC(=O)N1CC(CCl)c2c1cc(O)c1cc(NC(C)=O)ccc21)CC3CCl` (stereo not drawn), the figures for the GI50 in the assay with BT-549, in the assay on MDA-N and in the assay with Hs-578T were < 0.01 µM (active), < 0.01 µM (active) and 0.0306 µM (active), respectively.

Take `CC1=CC2=C(C#N)C(=O)OC2(C)C(c2ccccc2)C1` (stereo not drawn): the GI50 in the assay with BT-549, with MDA-N and in the assay with Hs-578T was > 100 µM (inactive) each time.

`COc1ccc(C(C)NNC(=O)c2ccncc2)cc1OC` (stereo not drawn): the GI50 in the assay on BT-549, with MDA-N and in the assay with Hs-578T was > 100 µM (inactive) each time.

Turning to `O=C(O)CC(C(=O)O)c1ccccc1[N+](=O)[O-]` (stereo not drawn), the GI50 is > 100 µM (inactive) in the assay with BT-549, > 100 µM (inactive) in the assay on MDA-N and 25.6 µM (inactive) with Hs-578T.

On to `C#C[C@]1(O)CCCC2=CC(=O)CC[C@@]21C`, for which the GI50 with M19-MEL, in the assay on LXFL 529 and in the assay on KM-20L2 was > 100 µM (inactive) each time.

`O=C(NO)NCCCl`: the GI50 in the assay on BT-549, with MDA-N and in the assay on Hs-578T was > 100 µM (inactive) each time.

Take `C=CCCCC(C#N)(c1ccccc1)N1CCCC1` (stereo not drawn): the GI50 with M19-MEL, in the assay on SNB-78 and with KM-20L2 was > 100 µM (inactive) each time.

Turning to `C=C1CC2(CC(c3ccccc3Cl)OC(c3ccccc3Cl)C2)OC1=O` (stereo not drawn), the values for the GI50 with BT-549, with MDA-N and in the assay on Hs-578T were 2.02 µM (inactive), 1.87 µM (inactive) and 1.88 µM (inactive), respectively.

Regarding `COc1c2c(cc3c1C(=O)c1c(O)cccc1C3=O)CC(O)CC2` (stereo not drawn), the GI50 is 19.5 µM (inactive) with BT-549, > 100 µM (inactive) with MDA-N and 26.7 µM (inactive) in the assay with Hs-578T.

As for `O=C1/C(=C\c2ccc([N+](=O)[O-])cc2)N(S(=O)(=O)c2ccccc2)c2ncccc21`, the GI50 was 18.3 µM (inactive) with BT-549, 19.5 µM (inactive) with MDA-N and 31.2 µM (inactive) with Hs-578T.

With `COc1cccc2c1C(=O)c1ccc3cc(CO)cc(O)c3c1C2=O`, the GI50 with BT-549 was 1.58 µM (inactive); in the assay on MDA-N, 0.19 µM (active); with Hs-578T, 3.7 µM (inactive).

With `C=CC(C1=CC(=O)C(OC)=CC1=O)c1ccccc1` (stereo not drawn) [4-METHOXYDALBERGIONE], the GI50 is 15.5 µM (inactive) in the assay on BT-549, 13.8 µM (inactive) with MDA-N and 17.8 µM (inactive) in the assay with Hs-578T.

`NC(CCSCCF)C(=O)O` (stereo not drawn): the GI50 with M19-MEL, in the assay on LXFL 529, with SNB-78 and in the assay on KM-20L2 was > 100 µM (inactive) each time.

For the molecule `Oc1cccc2c1NC1=C(CCC/C1=C\c1ccccc1)C2`, the GI50 in the assay with M19-MEL is 55.8 µM (inactive); in the assay on LXFL 529, 89.5 µM (inactive); in the assay on XF498 it was 57.1 µM (inactive); with KM-20L2 it was 52.6 µM (inactive).

Consider `c1ccc2c(c1)CCN1CCc3ccccc3C1C2` (stereo not drawn), for which the GI50 was 80.7 µM (inactive) in the assay with BT-549, 12.4 µM (inactive) in the assay on MDA-N and 68.5 µM (inactive) in the assay on Hs-578T.

For the molecule `CCSc1nnc(Sc2c3ccccc3nc3ccccc23)s1`, the GI50 with BT-549 is 17.6 µM (inactive); in the assay on MDA-N, 6.68 µM (inactive); in the assay with Hs-578T, 32.7 µM (inactive).

Regarding `COC(=O)c1ccc(/C=C2\Oc3ccccc3C2=O)cc1`, the GI50 with BT-549, in the assay on MDA-N and in the assay on Hs-578T was > 100 µM (inactive) throughout.

On to `CC(C)NC(=O)OCc1c(COC(=O)NC(C)C)n(C)c2c1ccc1cc(Cl)c(Cl)cc12`, for which the GI50 was 15.2 µM (inactive) with BT-549, 13.6 µM (inactive) in the assay with MDA-N and 23.8 µM (inactive) in the assay with Hs-578T.
